From patent US9809578B2, “Pyrazolyl urea, thiourea, guanidine and cyanoguanidine compounds as trkA kinase inhibitors” (Array BioPharma Inc., priority 2012, dated 2017)

Assays:
Format in all cases: biochemical
Conditions in all cases: 10 μM, ATP near Km
MST2 = target: T1, MST2 (Homo sapiens, UniProt Q13188); test: KinaseProfiler MST2
T1 construct: purchased Millipore, Inc. (KinaseProfiler service)
Text: (§1) The compound was run in duplicate at a concentration of ATP near the Km for each individual kinase according to Millipore's specifications.

CSK = target: T2, CSK (Homo sapiens, UniProt P41240); test: KinaseProfiler CSK
T2 construct: purchased Millipore, Inc. (KinaseProfiler service)
Text: as §1

ITK = target: T3, ITK (Homo sapiens, UniProt Q08881); test: KinaseProfiler ITK
T3 construct: purchased Millipore, Inc. (KinaseProfiler service)
Text: as §1

PRK2 = target: T4, PRK2 (Homo sapiens, UniProt Q16513); test: KinaseProfiler PRK2
T4 construct: purchased Millipore, Inc. (KinaseProfiler service)
Text: as §1

p38gamma = target: T5, p38gamma (Homo sapiens, UniProt P53778); test: KinaseProfiler p38gamma
T5 construct: purchased Millipore, Inc. (KinaseProfiler service)
Text: as §1

Lyn = target: T6, Lyn (Homo sapiens, UniProt P07948); test: KinaseProfiler Lyn
T6 construct: purchased Millipore, Inc. (KinaseProfiler service)
Text: as §1

p70S6K = target: T7, p70S6K (Homo sapiens, UniProt P23443); test: KinaseProfiler p70S6K
T7 construct: purchased Millipore, Inc. (KinaseProfiler service)
Text: as §1

PKCtheta = target: T8, PKCtheta (Homo sapiens, UniProt Q04759); test: KinaseProfiler PKCtheta
T8 construct: purchased Millipore, Inc. (KinaseProfiler service)
Text: as §1

PKCdelta = target: T9, PKCdelta (Homo sapiens, UniProt Q05655); test: KinaseProfiler PKCdelta
T9 construct: purchased Millipore, Inc. (KinaseProfiler service)
Text: as §1

Hck = target: T10, Hck (Homo sapiens, UniProt P08631); test: KinaseProfiler Hck
T10 construct: purchased Millipore, Inc. (KinaseProfiler service)
Text: as §1

mTOR/FKBP12 = target: T11, mTOR/FKBP12 (Homo sapiens, UniProt P42345); test: KinaseProfiler mTOR/FKBP12
T11 construct: purchased Millipore, Inc. (KinaseProfiler service)
Text: as §1

NEK7 = target: T12, NEK7 (Homo sapiens, UniProt Q8TDX7); test: KinaseProfiler NEK7
T12 construct: purchased Millipore, Inc. (KinaseProfiler service)
Text: as §1

eEF-2K = target: T13, eEF-2K (Homo sapiens, UniProt O00418); test: KinaseProfiler eEF-2K
T13 construct: purchased Millipore, Inc. (KinaseProfiler service)
Text: as §1

PTK5 = target: T14, PTK5 (Homo sapiens, UniProt P42685); test: KinaseProfiler PTK5
T14 construct: purchased Millipore, Inc. (KinaseProfiler service)
Text: as §1

MKK6 = target: T15, MKK6 (Homo sapiens, UniProt P52564); test: KinaseProfiler MKK6
T15 construct: purchased Millipore, Inc. (KinaseProfiler service)
Text: as §1

SRC = target: T16, SRC (Homo sapiens, UniProt P12931); test: KinaseProfiler SRC
T16 construct: purchased Millipore, Inc. (KinaseProfiler service)
Text: as §1

FAK2 = target: T17, FAK2 (Homo sapiens, UniProt Q14289); test: KinaseProfiler FAK2
T17 construct: purchased Millipore, Inc. (KinaseProfiler service)
Text: as §1

MSSK1 = target: T18, MSSK1 (Homo sapiens, UniProt Q9UPE1); test: KinaseProfiler MSSK1
T18 construct: purchased Millipore, Inc. (KinaseProfiler service)
Text: as §1

Flt4 = target: T19, Flt4 (Homo sapiens, UniProt P35916); test: KinaseProfiler Flt4
T19 construct: purchased Millipore, Inc. (KinaseProfiler service)
Text: as §1

Haspin = target: T20, Haspin (Homo sapiens, UniProt Q8TF76); test: KinaseProfiler Haspin
T20 construct: purchased Millipore, Inc. (KinaseProfiler service)
Text: as §1

Flt1 = target: T21, Flt1 (Homo sapiens, UniProt P17948); test: KinaseProfiler Flt1
T21 construct: purchased Millipore, Inc. (KinaseProfiler service)
Text: as §1

DAPK2 = target: T22, DAPK2 (Homo sapiens, UniProt Q9UIK4); test: KinaseProfiler DAPK2
T22 construct: purchased Millipore, Inc. (KinaseProfiler service)
Text: as §1

MARK2 = target: T23, MARK2 (Homo sapiens, UniProt Q7KZI7); test: KinaseProfiler MARK2
T23 construct: purchased Millipore, Inc. (KinaseProfiler service)
Text: as §1

CDK5/p35 = target: T24, CDK5/p35 (Homo sapiens, UniProt Q00535); test: KinaseProfiler CDK5/p35
T24 construct: purchased Millipore, Inc. (KinaseProfiler service)
Text: as §1

Yes = target: T25, Yes (Homo sapiens, UniProt P07947); test: KinaseProfiler Yes
T25 construct: purchased Millipore, Inc. (KinaseProfiler service)
Text: as §1

RIPK2 = target: T26, RIPK2 (Homo sapiens, UniProt O43353); test: KinaseProfiler RIPK2
T26 construct: purchased Millipore, Inc. (KinaseProfiler service)
Text: as §1

PKAC-alpha = target: T27, PKAC-alpha (Homo sapiens, UniProt P17612); test: KinaseProfiler PKAC-alpha
T27 construct: purchased Millipore, Inc. (KinaseProfiler service)
Text: as §1

FGFR4 = target: T28, FGFR4 (Homo sapiens, UniProt P22455); test: KinaseProfiler FGFR4
T28 construct: purchased Millipore, Inc. (KinaseProfiler service)
Text: as §1

PrKX = target: T29, PrKX (Homo sapiens, UniProt P51817); test: KinaseProfiler PrKX
T29 construct: purchased Millipore, Inc. (KinaseProfiler service)
Text: as §1

PDGFRalpha = target: T30, PDGFRalpha (Homo sapiens, UniProt P16234); test: KinaseProfiler PDGFRalpha
T30 construct: purchased Millipore, Inc. (KinaseProfiler service)
Text: as §1

ALK4 = target: T31, ALK4 (Homo sapiens, UniProt P36896); test: KinaseProfiler ALK4
T31 construct: purchased Millipore (KinaseProfiler service)
Text: as §1

CK1delta = target: T32, CK1delta (Homo sapiens, UniProt P48730); test: KinaseProfiler CK1delta
T32 construct: purchased Millipore, Inc. (KinaseProfiler service)
Text: as §1

EphA3 = target: T33, EphA3 (Homo sapiens, UniProt P29320); test: KinaseProfiler EphA3
T33 construct: purchased Millipore, Inc. (KinaseProfiler service)
Text: as §1

PKD2 = target: T34, PKD2 (Homo sapiens, UniProt Q9BZL6); test: KinaseProfiler PKD2
T34 construct: purchased Millipore, Inc. (KinaseProfiler service)
Text: as §1

CLK3 = target: T35, CLK3 (Homo sapiens, UniProt P49761); test: KinaseProfiler CLK3
T35 construct: purchased Millipore, Inc. (KinaseProfiler service)
Text: as §1

IRAK4 = target: T36, IRAK4 (Homo sapiens, UniProt Q9NWZ3); test: KinaseProfiler IRAK4
T36 construct: purchased Millipore, Inc. (KinaseProfiler service)
Text: as §1

Pim-2 = target: T37, Pim-2 (Homo sapiens, UniProt Q9P1W9); test: KinaseProfiler Pim-2
T37 construct: purchased Millipore, Inc. (KinaseProfiler service)
Text: as §1

NEK3 = target: T38, NEK3 (Homo sapiens, UniProt P51956); test: KinaseProfiler NEK3
T38 construct: purchased Millipore, Inc. (KinaseProfiler service)
Text: as §1

EphA2 = target: T39, EphA2 (Homo sapiens, UniProt P29317); test: KinaseProfiler EphA2
T39 construct: purchased Millipore, Inc. (KinaseProfiler service)
Text: as §1

Abl2 = target: T40, Abl2 (Homo sapiens, UniProt P42684); test: KinaseProfiler Abl2
T40 construct: purchased Millipore (KinaseProfiler service)
Text: as §1

MKK4_m = target: T41, MKK4_m (Mus musculus, UniProt P47809); test: KinaseProfiler MKK4_m
T41 construct: purchased Millipore, Inc. (KinaseProfiler service)
Text: as §1

p38delta = target: T42, p38delta (Homo sapiens, UniProt O15264); test: KinaseProfiler p38delta
T42 construct: purchased Millipore, Inc. (KinaseProfiler service)
Text: as §1

ARK5 = target: T43, ARK5 (Homo sapiens, UniProt O60285); test: KinaseProfiler ARK5
T43 construct: purchased Millipore (KinaseProfiler service)
Text: as §1

T32 sequence (P48730 whole entry): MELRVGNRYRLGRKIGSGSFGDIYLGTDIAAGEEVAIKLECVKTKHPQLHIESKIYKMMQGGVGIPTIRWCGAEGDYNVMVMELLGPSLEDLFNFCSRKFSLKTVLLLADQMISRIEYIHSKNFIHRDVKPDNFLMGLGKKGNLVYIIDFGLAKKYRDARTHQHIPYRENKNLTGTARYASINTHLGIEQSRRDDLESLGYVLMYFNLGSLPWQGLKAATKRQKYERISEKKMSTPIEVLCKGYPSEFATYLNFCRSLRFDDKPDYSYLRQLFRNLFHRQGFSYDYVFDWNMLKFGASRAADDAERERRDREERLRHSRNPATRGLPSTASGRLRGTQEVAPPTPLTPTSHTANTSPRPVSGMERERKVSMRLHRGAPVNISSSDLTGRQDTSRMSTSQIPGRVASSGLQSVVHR
T35 sequence (P49761 whole entry): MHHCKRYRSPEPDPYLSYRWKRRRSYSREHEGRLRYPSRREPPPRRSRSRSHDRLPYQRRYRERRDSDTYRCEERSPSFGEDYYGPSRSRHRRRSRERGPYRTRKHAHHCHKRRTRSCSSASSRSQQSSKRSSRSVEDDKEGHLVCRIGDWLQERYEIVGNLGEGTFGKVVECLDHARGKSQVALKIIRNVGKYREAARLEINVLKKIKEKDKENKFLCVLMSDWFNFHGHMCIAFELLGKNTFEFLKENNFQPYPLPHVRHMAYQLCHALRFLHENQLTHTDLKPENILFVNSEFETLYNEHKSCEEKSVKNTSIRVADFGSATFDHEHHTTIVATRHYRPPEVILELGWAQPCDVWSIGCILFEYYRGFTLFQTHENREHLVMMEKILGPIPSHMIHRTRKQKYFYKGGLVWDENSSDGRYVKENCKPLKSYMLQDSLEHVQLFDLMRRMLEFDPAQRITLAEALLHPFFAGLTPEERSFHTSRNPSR
T29 sequence (P51817 whole entry): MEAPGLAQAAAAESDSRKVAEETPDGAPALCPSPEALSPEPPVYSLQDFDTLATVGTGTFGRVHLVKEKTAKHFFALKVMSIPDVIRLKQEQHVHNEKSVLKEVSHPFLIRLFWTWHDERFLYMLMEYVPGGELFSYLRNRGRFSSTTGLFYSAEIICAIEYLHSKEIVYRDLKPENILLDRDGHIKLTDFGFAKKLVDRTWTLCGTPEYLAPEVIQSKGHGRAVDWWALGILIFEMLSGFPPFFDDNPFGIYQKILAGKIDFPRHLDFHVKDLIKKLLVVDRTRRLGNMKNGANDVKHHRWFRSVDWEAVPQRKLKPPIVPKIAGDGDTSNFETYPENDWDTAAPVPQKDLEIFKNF
T5 sequence (P53778 whole entry): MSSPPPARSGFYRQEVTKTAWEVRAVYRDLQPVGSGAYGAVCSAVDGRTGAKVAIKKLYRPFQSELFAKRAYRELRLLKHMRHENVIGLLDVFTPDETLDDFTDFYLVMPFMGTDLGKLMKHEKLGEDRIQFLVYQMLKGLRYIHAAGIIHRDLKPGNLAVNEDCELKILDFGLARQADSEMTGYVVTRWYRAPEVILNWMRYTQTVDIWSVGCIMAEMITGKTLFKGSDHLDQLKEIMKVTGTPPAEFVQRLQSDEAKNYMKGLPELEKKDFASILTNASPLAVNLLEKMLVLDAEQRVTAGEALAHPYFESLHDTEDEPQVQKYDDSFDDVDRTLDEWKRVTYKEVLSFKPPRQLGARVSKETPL
T43 sequence (O60285 whole entry): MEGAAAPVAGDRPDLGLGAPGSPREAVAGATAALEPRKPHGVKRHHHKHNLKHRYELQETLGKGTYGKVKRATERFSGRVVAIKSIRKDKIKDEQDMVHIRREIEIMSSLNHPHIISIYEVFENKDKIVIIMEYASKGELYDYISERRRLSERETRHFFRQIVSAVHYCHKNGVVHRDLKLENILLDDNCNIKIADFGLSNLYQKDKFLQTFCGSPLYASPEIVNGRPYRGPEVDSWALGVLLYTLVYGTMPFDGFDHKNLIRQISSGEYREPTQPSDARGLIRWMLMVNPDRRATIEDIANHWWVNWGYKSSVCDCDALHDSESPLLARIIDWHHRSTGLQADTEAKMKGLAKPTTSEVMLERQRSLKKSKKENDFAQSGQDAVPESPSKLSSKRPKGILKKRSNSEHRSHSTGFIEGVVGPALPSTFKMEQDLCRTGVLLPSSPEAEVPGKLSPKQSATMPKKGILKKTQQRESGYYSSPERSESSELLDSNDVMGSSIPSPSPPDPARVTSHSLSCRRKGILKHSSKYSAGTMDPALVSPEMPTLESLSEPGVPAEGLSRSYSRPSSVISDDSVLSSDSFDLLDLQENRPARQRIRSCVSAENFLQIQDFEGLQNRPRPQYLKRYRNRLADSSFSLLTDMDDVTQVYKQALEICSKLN
T9 sequence (Q05655 whole entry): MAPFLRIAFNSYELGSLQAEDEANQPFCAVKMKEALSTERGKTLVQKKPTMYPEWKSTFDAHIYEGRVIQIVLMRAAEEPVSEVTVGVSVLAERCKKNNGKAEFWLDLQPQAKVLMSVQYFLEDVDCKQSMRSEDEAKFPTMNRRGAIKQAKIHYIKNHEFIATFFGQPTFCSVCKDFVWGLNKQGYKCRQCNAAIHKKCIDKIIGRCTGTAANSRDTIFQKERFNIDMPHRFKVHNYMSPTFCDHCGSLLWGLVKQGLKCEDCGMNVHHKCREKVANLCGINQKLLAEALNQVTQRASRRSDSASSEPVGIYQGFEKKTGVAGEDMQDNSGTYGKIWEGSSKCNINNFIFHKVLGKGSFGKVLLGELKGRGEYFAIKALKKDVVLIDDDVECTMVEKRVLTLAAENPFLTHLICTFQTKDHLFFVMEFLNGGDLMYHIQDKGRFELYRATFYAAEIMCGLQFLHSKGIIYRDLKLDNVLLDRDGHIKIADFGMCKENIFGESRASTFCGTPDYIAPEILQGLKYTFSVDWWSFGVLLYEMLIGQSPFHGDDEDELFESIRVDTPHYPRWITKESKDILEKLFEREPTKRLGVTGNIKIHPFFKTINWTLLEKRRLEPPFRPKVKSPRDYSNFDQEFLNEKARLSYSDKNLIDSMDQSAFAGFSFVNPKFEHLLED
T14 sequence (P42685 whole entry): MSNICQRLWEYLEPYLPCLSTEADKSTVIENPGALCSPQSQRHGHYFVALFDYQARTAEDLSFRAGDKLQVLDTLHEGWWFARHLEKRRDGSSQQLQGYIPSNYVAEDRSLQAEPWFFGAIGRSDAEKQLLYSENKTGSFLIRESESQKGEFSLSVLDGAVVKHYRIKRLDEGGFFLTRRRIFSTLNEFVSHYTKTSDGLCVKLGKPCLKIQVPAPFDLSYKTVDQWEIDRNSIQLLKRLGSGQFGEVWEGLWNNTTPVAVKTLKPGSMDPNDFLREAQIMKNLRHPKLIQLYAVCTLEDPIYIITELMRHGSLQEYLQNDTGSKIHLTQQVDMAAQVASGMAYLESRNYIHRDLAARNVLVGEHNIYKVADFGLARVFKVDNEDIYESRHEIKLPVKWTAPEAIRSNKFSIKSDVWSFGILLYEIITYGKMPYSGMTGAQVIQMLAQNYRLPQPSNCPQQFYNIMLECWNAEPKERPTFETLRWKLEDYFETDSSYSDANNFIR
T17 sequence (Q14289 whole entry): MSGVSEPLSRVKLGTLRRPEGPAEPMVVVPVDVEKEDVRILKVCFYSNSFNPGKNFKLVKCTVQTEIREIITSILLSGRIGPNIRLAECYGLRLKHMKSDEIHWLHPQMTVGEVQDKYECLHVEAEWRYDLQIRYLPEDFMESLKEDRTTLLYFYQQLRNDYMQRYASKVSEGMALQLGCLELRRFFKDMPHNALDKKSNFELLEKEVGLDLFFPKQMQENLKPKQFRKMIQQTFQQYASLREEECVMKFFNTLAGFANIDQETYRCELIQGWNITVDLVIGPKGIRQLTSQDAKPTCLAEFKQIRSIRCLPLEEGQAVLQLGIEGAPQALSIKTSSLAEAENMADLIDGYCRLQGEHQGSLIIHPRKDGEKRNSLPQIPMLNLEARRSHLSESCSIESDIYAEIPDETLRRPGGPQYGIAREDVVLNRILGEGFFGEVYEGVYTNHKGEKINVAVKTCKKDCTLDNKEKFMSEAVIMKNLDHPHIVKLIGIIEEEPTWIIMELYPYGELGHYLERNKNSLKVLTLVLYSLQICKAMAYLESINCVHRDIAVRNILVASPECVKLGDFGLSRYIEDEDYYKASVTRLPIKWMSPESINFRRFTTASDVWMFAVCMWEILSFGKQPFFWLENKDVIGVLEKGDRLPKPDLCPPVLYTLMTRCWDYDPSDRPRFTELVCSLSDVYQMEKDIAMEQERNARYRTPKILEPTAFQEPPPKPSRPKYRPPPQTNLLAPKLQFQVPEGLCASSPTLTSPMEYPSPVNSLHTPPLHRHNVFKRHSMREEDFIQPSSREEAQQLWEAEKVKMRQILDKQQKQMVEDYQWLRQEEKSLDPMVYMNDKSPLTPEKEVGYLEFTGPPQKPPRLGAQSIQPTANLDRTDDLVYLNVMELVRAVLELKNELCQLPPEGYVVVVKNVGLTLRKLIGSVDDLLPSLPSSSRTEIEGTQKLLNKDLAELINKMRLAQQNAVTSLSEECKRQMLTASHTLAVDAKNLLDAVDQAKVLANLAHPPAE
T12 sequence (Q8TDX7 whole entry): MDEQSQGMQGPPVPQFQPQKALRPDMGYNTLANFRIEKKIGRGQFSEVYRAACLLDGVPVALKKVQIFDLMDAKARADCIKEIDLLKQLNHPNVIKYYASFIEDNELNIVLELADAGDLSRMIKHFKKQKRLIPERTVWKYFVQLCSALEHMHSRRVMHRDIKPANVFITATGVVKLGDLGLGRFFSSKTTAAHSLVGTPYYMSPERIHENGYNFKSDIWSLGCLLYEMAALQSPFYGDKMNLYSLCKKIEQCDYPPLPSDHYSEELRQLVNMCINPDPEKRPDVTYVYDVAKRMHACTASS

Cc1c(-c2cnn(C)c2)nn(-c2ccccc2)c1NC(=O)Nc1cc(C(F)(F)F)nn1-c1ccccc1 [Example 3, 1-(1′,4-dimethyl-1-phenyl-1H,1′H-[3,4′-bipyrazol]-5-yl)-3-(1-phenyl-3-(trifluoromethyl)-1H-pyrazol-5-yl)urea]
Avg POC (MST2): 102.5 POC
Avg POC (CSK): 137.5 POC
Avg POC (ITK): 128 POC
Avg POC (PRK2): 106.5 POC
Avg POC (p38gamma): 114.5 POC
Avg POC (Lyn): 98 POC
Avg POC (p70S6K): 273.5 POC
Avg POC (PKCtheta): 113.5 POC
Avg POC (PKCdelta): 98.5 POC
Avg POC (Hck): 110.5 POC
Avg POC (mTOR/FKBP12): 92.5 POC
Avg POC (NEK7): 118 POC
Avg POC (eEF-2K): 148.5 POC
Avg POC (PTK5): 102 POC
Avg POC (MKK6): 132.5 POC
Avg POC (SRC): 102.5 POC
Avg POC (FAK2): 103.5 POC
Avg POC (MSSK1): 140 POC
Avg POC (Flt4): 80.5 POC
Avg POC (Haspin): 121 POC
Avg POC (Flt1): 91.5 POC
Avg POC (DAPK2): 106 POC
Avg POC (MARK2): 106.5 POC
Avg POC (CDK5/p35): 110.5 POC
Avg POC (Yes): 114 POC
Avg POC (RIPK2): 96.5 POC
Avg POC (PKAC-alpha): 136.5 POC
Avg POC (FGFR4): 174.5 POC
Avg POC (PrKX): 188 POC
Avg POC (PDGFRalpha): 106 POC
Avg POC (ALK4): 104.5 POC
Avg POC (CK1delta): 141 POC
Avg POC (EphA3): 128.5 POC
Avg POC (PKD2): 115 POC
Avg POC (CLK3): 104 POC
Avg POC (IRAK4): 131.5 POC
Avg POC (Pim-2): 117.5 POC
Avg POC (NEK3): 105.5 POC
Avg POC (EphA2): 120 POC
Avg POC (Abl2): 148.5 POC
Avg POC (MKK4_m): 132.5 POC
Avg POC (p38delta): 92.5 POC
Avg POC (ARK5): 92.5 POC
